Drawing on patent US7601722B2, “Aryl sulfamide derivatives and methods of their use” (Wyeth, priority 2006, dated 2009), this text covers IC50 and half-life for 12 compounds.

Counter-ions that a name gives are not always drawn.

The target of one data set is hNET (Homo sapiens, UniProt P23975). Kind of data set: hNET binding according to Mahaney et al. The note with it: hNET binding per footnote, printed in the NE uptake column.
A short description of data set [1]: Rat Liver Microsomal Stability Assay. It is filed as in vitro ADME. Particulars: pH 7.4; rat liver microsomes, 37° C., NADPH, Time 0 and Time 15 min; read-out: RLM stability t1/2. As to the method:
Rat Liver Microsomal Stability Assay:
DMSO stock solutions of test compounds were prepared at 0.5 mM concentration. Diluted solutions of test compounds were prepared by adding 50 uL of each DMSO stock solution to 200 uL of acetonitrile to make 0.1 mM solutions in 20% DMSO/80% acetonitrile. Rat liver microsomal solution was prepared by adding 1.582 mL of concentrated rat liver microsomes (20 mg/mL protein concentration) to 48.291 mL of pre-warmed (to 37° C.) 0.1M potassium phosphate buffer (pH 7.4) containing 127 uL of 0.5 M EDTA to make a 0.6329 mg/mL (protein) microsomal solution. 11.2 uL of each test compound diluted solution was each added directly to 885 uL of rat liver microsomal solution (allowing direct binding of drugs to microsomal proteins and lipids to minimize precipitation and non-specific binding to the plasticware). This solution was mixed and 180 uL was transferred to “Time 0” and “Time 15 min” plates (each in duplicate wells). For the Time 15 min plate, NADPH regenerating agent (45 uL) was added to each well to initiate the reaction, the plate was incubated at 37° C. for 15 min, followed by quenching of the reaction by adding 450 uL of cold acetonitrile to each well. For the Time 0 plate, 450 uL of cold acetonitrile was added to each well, followed by addition of NADPH regenerating agent (45 uL) and no incubation. All of the plates were centrifuged at 3000 rpm for 15 min and the supernatants were transferred to other well plates for analysis by LC-MS.

In data set [2] the target is Dopamine Transporter (hDAT) (Homo sapiens, UniProt Q01959). Kind of data set: Dopamine Transporter (hDAT) Membrane Binding Assay.
Data set [3] addresses T1, Cloned Human NE Transporters (Homo sapiens, UniProt P23975).
T1 construct: expressed in transfected cells; host or cells: MDCK
Kind of data set: hNET Assay Procedure Protocol A: inhibition of [3H] NE uptake (MDCK cells) (hNET uptake). Particulars: MDCK cells expressing hNET, [3H] NE 16 nM. It is filed as cell-based. As to the method: hNET Assay Procedure Protocol A: Inhibition of [^3H] NE Uptake into Cloned Human NE Transporters (MDCK Cells) (“hNET uptake”)
[^3H] […] Cells were seeded at 300,000/T75 flask, and split twice weekly.
All uptake experiments were performed in 96-well plates (Falcon Optilux, cat #353947) in a total volume of 250 μl/well. MDCK cells were plated at 50,000 cells/well. […] 25 μl of each test compound was subsequently added to plates in triplicate and incubated at 37° C. for 5 minutes. All test compounds were dissolved in 100% DMSO and diluted in 4% DMSO/H2O, and assayed using a 7-point dose response curve (1 nM-10 μM). Next, 25 μl of [^3H] NE (74.9 Ci/mmol, Perkin Elmer, Boston, Mass.) was added to all wells and incubated at 37° C. for an additional 5 minutes. Non-specific uptake was defined by 20 μM desipramine. The final concentrations of [^3H] NE was 16 nM, respectively. The reaction was terminated by aspiration and washed with ice cold 50 mM Tris (pH 7.4). […] 100 μl of Microscint-20 were added to each well (Packard, Perkin Elmer, Boston, Mass.), and the plates were counted using a TopCount (Perkin Elmer, Downer's Grove, Ill.) liquid scintillation counter. […]
IC50 values were calculated using a Prism® nonlinear regression program where % inhibition is plotted versus concentration of inhibitor.

Sequence of Dopamine Transporter (hDAT) (Q01959 whole entry): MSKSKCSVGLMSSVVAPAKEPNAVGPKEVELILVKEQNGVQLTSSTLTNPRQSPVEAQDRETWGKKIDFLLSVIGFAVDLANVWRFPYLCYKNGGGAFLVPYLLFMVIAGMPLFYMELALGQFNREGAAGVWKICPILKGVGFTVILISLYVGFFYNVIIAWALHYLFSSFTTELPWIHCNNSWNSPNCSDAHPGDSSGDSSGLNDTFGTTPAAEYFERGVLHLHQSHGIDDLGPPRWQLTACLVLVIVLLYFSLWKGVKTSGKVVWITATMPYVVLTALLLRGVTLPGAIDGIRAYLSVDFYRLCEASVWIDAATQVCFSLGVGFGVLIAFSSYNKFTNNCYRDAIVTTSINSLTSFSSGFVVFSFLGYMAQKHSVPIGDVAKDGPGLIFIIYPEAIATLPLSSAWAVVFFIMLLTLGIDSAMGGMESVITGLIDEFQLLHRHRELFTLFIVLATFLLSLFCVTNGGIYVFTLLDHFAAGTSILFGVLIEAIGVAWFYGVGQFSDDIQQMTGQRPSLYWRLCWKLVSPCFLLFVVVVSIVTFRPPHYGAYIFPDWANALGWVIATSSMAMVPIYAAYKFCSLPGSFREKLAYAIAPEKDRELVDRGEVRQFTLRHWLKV
Sequence of hNET (P23975 whole entry): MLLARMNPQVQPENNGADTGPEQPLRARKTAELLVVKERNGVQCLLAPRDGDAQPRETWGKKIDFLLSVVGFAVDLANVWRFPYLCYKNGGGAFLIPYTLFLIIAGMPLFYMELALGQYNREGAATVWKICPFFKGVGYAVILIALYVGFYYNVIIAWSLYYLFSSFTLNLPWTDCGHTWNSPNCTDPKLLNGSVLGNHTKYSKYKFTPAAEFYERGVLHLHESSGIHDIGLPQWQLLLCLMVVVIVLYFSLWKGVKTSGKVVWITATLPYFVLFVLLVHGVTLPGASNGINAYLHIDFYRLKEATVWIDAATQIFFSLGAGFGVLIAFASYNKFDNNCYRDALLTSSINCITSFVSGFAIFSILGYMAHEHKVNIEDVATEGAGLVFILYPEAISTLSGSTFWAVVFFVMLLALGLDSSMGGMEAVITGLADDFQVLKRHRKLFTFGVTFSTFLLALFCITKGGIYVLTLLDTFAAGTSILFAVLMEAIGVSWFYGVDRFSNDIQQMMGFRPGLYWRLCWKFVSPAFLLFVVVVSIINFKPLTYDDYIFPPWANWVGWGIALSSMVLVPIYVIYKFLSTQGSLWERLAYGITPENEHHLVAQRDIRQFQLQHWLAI
T1 sequence (P23975 whole entry): as above

Compound `NCC1CCN(CCN2c3ccccc3N(c3ccccc3)S2(=O)=O)C1` (stereo not shown) [Example 105, 1-{1-[2-(2,2-dioxido-3-phenyl-2,1,3-benzothiadiazol-1(3H)-yl)ethyl]pyrrolidin-3-yl}methanamine dihydrochloride] came in with an IC50 at hNET of 289 nM.

For `O=S1(=O)N(CC[C@H]2CNCCO2)c2ccccc2N1c1ccccc1` [Example 135, 1-{2-[(2S)-morpholin-2-yl]ethyl}-3-phenyl-1,3-dihydro-2,1,3-benzothiadiazole2,2-dioxide], in data set [1], the half-life at 1 µM was determined as 5 min. Further, the IC50 in data set [2] was found to be 479 nM.

With `O=S1(=O)N(CC[C@@H]2CNCCO2)c2ccccc2N1c1ccccc1` [Example 136, 1-{2-[(2R)-morpholin-2-yl]ethyl}-3-phenyl-1,3-dihydro-2,1,3-benzothiadiazole2,2-dioxide], in data set [1], the half-life at 1 µM is 3 min. The compound further yielded an IC50 in data set [2] of 598 nM.

Take `O=S1(=O)N(CCC2CNCCO2)c2ccccc2N1c1ccc(F)cc1` (stereo not shown) [Example 137, 1-(4-fluorophenyl)-3-(2-morpholin-2-ylethyl)-1,3-dihydro-2,1,3-benzothiadiazole 2,2-dioxide]: the half-life at 1 µM in data set [1] stood at 9 min.

As for `O=S1(=O)N(CC[C@@H]2CNCCO2)c2ccccc2N1c1ccc(F)cc1` [Example 139, 1-(4-fluorophenyl)-3-{2-[(2R)-morpholin-2-yl]ethyl}-1,3-dihydro-2,1,3-benzothiadiazole2,2-dioxide], in data set [1], the half-life at 1 µM is 10 min.

For the compound `O=S1(=O)N(CC[C@H]2CNCCO2)c2ccccc2N1c1ccc(F)cc1F` [Example 141, 1-(2,4-difluorophenyl)-3-{2-[(2S)-morpholin-2-yl]ethyl}-1,3-dihydro-2,1,3-benzothiadiazole2,2-dioxide], the half-life at 1 µM in data set [1] turned out to be 2 min.

Take `COc1cccc(N2c3ccccc3N(CC[C@H]3CNCCO3)S2(=O)=O)c1` [Example 146, 1-(3-methoxyphenyl)-3-{2-[(2S)-morpholin-2-yl]ethyl}-1,3-dihydro-2,1,3-benzothiadiazole2,2-dioxide]: the half-life at 1 µM in data set [1] was 5 min.

Consider `O=S1(=O)N(CC[C@H]2CNCCO2)c2ccccc2N1c1ccccc1F` [Example 148, 1-(2-fluorophenyl)-3-{2-[(2S)-morpholin-2-yl]ethyl}-1,3-dihydro-2,1,3-benzothiadiazole2,2-dioxide], for which the half-life at 1 µM in data set [1] was determined as 4 min. This compound gave an IC50 in data set [2] of 1400 nM.

For `O=S1(=O)N(CC[C@@H]2CNCCO2)c2ccccc2N1c1ccccc1F` [Example 149, 1-(2-fluorophenyl)-3-{2-[(2R)-morpholin-2-yl]ethyl}-1,3-dihydro-2,1,3-benzothiadiazole2,2-dioxide], the half-life at 1 µM in data set [1] stood at 5 min. Further, in data set [2], the IC50 came out at 2190 nM.

For the compound `O=S1(=O)N(CC[C@H]2CNCCO2)c2ccccc2N1c1c(F)cccc1F` [Example 150, 1-(2,6-difluorophenyl)-3-{2-[(2S)-morpholin-2-yl]ethyl}-1,3-dihydro-2,1,3-benzothiadiazole2,2-dioxide], the half-life at 1 µM in data set [1] amounted to 3 min.

At hNET, `CN(C)CCOCCN1c2ccccc2N(c2ccc(F)cc2F)S1(=O)=O` [Example 170, 2-{2-[3-(2,4-difluorophenyl)-2,2-dioxido-2,1,3-benzothiadiazol-1(3H)-yl]ethoxy}-N,N-dimethylethanamine hydrochloride] registered an IC50 of 207 nM.

`O=S1(=O)N(CCCCN2CCOCC2)c2ccccc2N1c1ccc(Cl)cc1` [Example 180, 1-(4-chlorophenyl)-3-(4-morpholin-4-ylbutyl)-1,3-dihydro-2,1,3-benzothiadiazole2,2-dioxide] came in with an IC50 in data set [3] of 1760 nM.
